# Literature values, collected in patent US20220168251A1, “PROCESS FOR PRODUCTION OF A NANO-MICROEMULSION SYSTEM OF FERULIC” (priority 2020, published 2022).
# System: hypertensive rats
# Settings: 8 weeks of treatment
structure (smiles),measurement,value
"COc1cc(/C=C/C(=O)O)ccc1O [ferulic acid, Ferulic acid]",blood flow to kidney,improvement
same,left ventricular stiffness in heart,decrease
same,systolic blood pressure,significant decrease
